In assay [1] the test system is HeLa cell line of human cervical carcinoma. The experiment in a line: Assay of cytotoxicity: HeLa cell growth inhibition (viable cell count, trypan blue exclusion). It is filed as cell-based. The note with it: compound alone; for number of living cells: three days of cultivation. On the procedure:
The assay of cytotoxicity of the inventive preparations was carried out on the well-known human cervical carcinoma cell line HeLa. HeLa cells were cultivated in full cultivation medium, containing 80% of Eagle Minimal Essential Medium with glutamine (Sigma), 20% of normal bovine serum, penicillin 100 IE/ml and streptomycin 100 μg/ml. HeLa cell at concentration of 10^5 cells/ml were seed in 24-well plates for adhesive cell lines (Sarstedt) in volume of 2 ml per well. HeLa cells were cultivated in CO2-incubator at temperature 37° C. in humidified atmosphere, consisting of 95% air and 5% CO2. On the next day, the experimental cultures were supplemented with solutions of the inventive preparations in normal bovine serum (NBS) in a volume of 20 μl, in order to obtain the necessary concentration for studying these in cultures. Control cultures were supplemented with normal bovine serum. After that HeLa cells were cultivated two days again at the same conditions. On the third day, HeLa cells from each cultures were harvested separately using versen. The number of viable cells was counted using tryphan blue exclusion test and a hemocytometer.
For evaluation of the cytotoxic action of these assayed preparations on HeLa cells the means value and standard errors of means of viable cell numbers were calculated. The cell growth inhibition (%) was calculated as: [formula]
The extent of cell growth inhibition caused by the assayed preparations was used for evaluation of their cytotoxicity.

Assay [2] deals with Ehrlich ascites carcinoma (EAC). The experiment in a line: Effect of pretreatment with compositions on antitumour action of DXR in mice with EAC. As to conditions: DXR alone (positive control) 3.5 mg/kg i.v. day 1, 3, 5, 7, day 8. It is filed as in vivo. How it is done:
Randombred albino mice of the ICR line, female, from own rearing were used in the study. The room for animal housing is provided with filtered air at 15 changes per hour, temperature of 19-21° C., relative humidity of 50-60% and regulated light day of 12 hours with change of light and darkness at 6 h a.m. and 6 h p.m. The mice were kept in transparent polycarbonate cages with floor area of 600 cm^2 containing softwood sawdust bedding. The animals had free access to bottles with domestic quality drinking tap water and to standard feeding for growing animals ad libidum. The mice age 2-2.5 months, weighing 20-23 g were randomly distributed to the control and test groups, standardised by mean weights. The control and test groups included 15 and 12 animals respectively. Specific earmarks identified the mice from each group. […]
The mice were killed by cervical dislocation one day later after the final treatment with the test substances on day 8. Ascites fluids were removed, collected, their volumes were recorded, and abdominal cavities were washed by saline 6-7 times and both fluids were pooled. Volumes of tumour cell pellet after centrifugation at 1000 r.p.m. for 10 min were also recorded. Number of viable tumour cells was counted by haemocytometer. Means and standard errors for each of animal groups were calculated. […] Influence of the composition on EAC growth inhibition was evaluated by: [formula] […]

Setting [3] is: first series of concentrations (5.00-6.59×10^−10 mol/l final).
Setting [4] is: second series of concentrations (10.00-13.17×10^−10 mol/l final).

Values joined by “and” are separate entries in the source; they are usually repeats but may differ in a detail not shown here. Identical values can stand only once.

`CC1=C(/C=C/C(C)=C/C=C/C(C)=C/C(=O)N[C@@H](Cc2ccc(OP(=O)(O)O)cc2)C(=O)O)C(C)(C)CCC1` (stereo in doubt) [C11, N-(all-trans-retinoyl)-O-phospho-L-tyrosine]: in assay [1] (setting [3]), the cell growth inhibition turned out to be 17.1% and the “number of living cells” value is 376.7±24.52 ×10^3. In assay [1] (setting [4]), the cell growth inhibition was 5.2% and the “number of living cells” value is reported as 430.8±16.37 ×10^3.

As for `CCC=CCC=CCC=CCC=CCC=CCC=CCCC(=O)NCCOP(=O)(O)O` [C6, N-docosahexaenoyl-O-phospho-2-aminoethanol], the cell growth inhibition in assay [1] (setting [3]) was 6.6%; in assay [1] (setting [4]) it was 7.4%. Besides, the “number of living cells” value is 424.2±18.41 ×10^3 in assay [1] (setting [3]) and 420.8±27.79 ×10^3 in assay [1] (setting [4]).

With `COc1cccc2c1C(=O)c1c(O)c3c(c(O)c1C2=O)C[C@@](O)(C(=O)CO)C[C@@H]3O[C@H]1C[C@H](N)[C@H](O)[C@H](C)O1` [DXR, Doxorubicin], in assay [2], the EAC growth inhibition is 42.8% and 45.1% and 47.3% and 39.4% and 44.5%; the “number of tumour cells (EAC cells in abdominal cavity)” value was 525.2±74.5 ×10^6 and 436.3±51.8 ×10^6 and 614.4±60.2 ×10^6 and 542.6±50.1 ×10^6 and 534.8±39.3 ×10^6.
